In patent US20200040348A1, “CONTROL OF VIRAL AND BACTERIAL INFECTION BY ANTIMICROBIAL PEPTIDES RETROCYCLIN AND/OR PROTEGRIN EXPRESSED IN CHLOROPLASTS” (THE TRUSTEES OF THE UNIVERSITY OF PENNSYLVANIA, priority 2010, published 2020):
Entries after “also recorded” stand apart in the source; their conditions may differ. Where no end group is shown, it is not given here.

Legend:
Erwinia carotovora [1] = test: In planta assay for resistance to Erwinia soft rot (syringe or sandpaper inoculation of tobacco leaves); format: in vivo; details: mature transplastomic tobacco leaves; for necrosis at the site of inoculation: sand paper method, up to 10^8 E. carotovora cells; for necrosis surrounding the point of inoculation: syringe method, 10^8, 10^6, 10^4 and 10^2 E. carotovora cells, peptide expressed in chloroplasts
Erwinia carotovora [2] = test: Erwinia carotovora inoculation and bacterial count in tobacco leaves; format: in vivo; details: plants inoculated with 1.0×10^5 cfu/ml E. carotovora
Experimental: The leaves of untransformed and transplastomic tobacco plants were inoculated with 20 μl of bacterial suspension (1.0×10^5 cfu/ml) through a syringe. Each leaf disc (0.8 cm diameter) was punched off from the inoculated area of an individual plant after 0, 1 or 3 days of incubation. The bacterial population inside the leaf was calculated as follows. Leaf tissue was ground in 100 μl sterilized water in a microcentrifuge tube. The suspension was serially diluted with sterilized water and was then plated on nutrient broth agar plates (Difco). Colonies were counted after one day of incubation at 25° C.

[3] = test system: tobacco mosaic virus (TMV); format: in vivo; details: transplastomic tobacco plants, within 20 days after inoculation
[4] = test system: gram-positive or gram-negative bacteria; details: cited from earlier work
[5] = test system: T-tropic and M-tropic strains of HIV-1; details: human CD4+ lymphocytes, in vitro; cited from earlier work
[6] = test system: vegetative B. anthracis cells; details: cited from earlier work
HIV-1 = details: organ-like construct of human cervicovaginal tissue; cited from earlier work

Substance | necrosis at the site of inoculation (Erwinia carotovora [1]) | necrosis surrounding the point of inoculation (Erwinia carotovora [1]) | symptoms of necrosis (Erwinia carotovora [2]) | symptoms of TMV infection [3] | minimum inhibitory concentrations [4] [µg/mL] | concentration that inhibits proviral DNA formation and protects from infection [5] [µg/mL] | minimum effective concentration [6] [µg/mL] | amount that prevents HIV-1 infection (HIV-1) [µg]
Protegrin-1 (RGGRLCYCRRRFCVCVGR; not fully specified (bridges); ends and bridges not checked; also: two disulfide bonds, pairing not given here) [PG1] | mild discoloration | no areas of necrosis | no apparent symptoms of necrosis | typical mosaic, necrosis and wrinkle symptoms; also recorded: not effective | 0.12 to 2 | – | – | –
Retrocyclin | – | – | – | – | – | 10 to 20 | – | –
Retrocyclin-1 | – | – | – | – | – | – | < 1 | –
Retrocyclin-101 [RC101] | no necrosis | no areas of necrosis | no apparent symptoms of necrosis | didn't show obvious symptoms of TMV infection; also recorded: resistant to TMV infection | – | – | – | 2
